In patent US8207156B2, “Substituted pyrazoline compounds, their preparation and use as medicaments” (Laboratorios Del Dr. Esteve, S.A., priority 2005, dated 2012):
Counter-ions that a name gives are not always drawn.

Key:
CB1 receptor [1] = biological target: T1, CB1 receptor (UniProt P20272); test: In-vitro determination of affinity to CB1/CB2-receptors (radioligand [3H]-CP55940 binding); details: for Inhibition [%], 10^−7 M: compound at 10^−7 M; for Inhibition [%], 10^−8 M: compound at 10^−8 M
T1 construct: other: compound at 10^−7 M; radioligand [3H]-CP55940; other: compound at 10^−8 M
Method: (§1) The in-vitro determination of the affinity of the inventive substituted pyrazoline compounds to CB1/CB2-Rezeptors is carried out as described in the publication of Ruth A. Ross, Heather C. Brockie et al., “Agonist-inverse agonist characterization at CB1 and CB2 cannabinoid receptors of L-759633, L759656 and AM630”, British Journal of Pharmacology, 126, 665-672, (1999), whereby the transfected human CB1 and CB2 receptors of Receptor Biology, Inc. are used. The radioligand used for both receptors is [^3H]-CP55940. The respective parts of the description is hereby incorporated by reference and forms part of the present disclosure.
(§2) Binding affinity to CB1 receptor was evaluated according to a modification of the method described by Govaerts et al., Eur J Pharmac Sci 23, 233-243 (2004). The respective parts of the description is hereby incorporated by reference and forms part of the present disclosure.
(§3) Briefly, cerebellum from male wistar rats (250-300 g) were carefully dissected on ice and homogenates were prepared with Potter-Helveheim in a cold 50 mM Tris-HCl solution containing 5 mM MgCl2, 1 mM EDTA and 0.25 M sucrose, pH 7.4. The suspension was centrifuged at 1,000×g for 5 minutes. The supernatants were collected and centrifuged 50,000×g for 15 minutes. The resulting pellets were then resuspended in Tris-HCl buffer without sucrose, homogenized and incubated for 15 min at 37° C. in an orbital shaker bath and centrifuged again at 50,000×g for 15 min. Pellets were weighted, resuspended in Tris-HCl buffer without sucrose, homogenized with Ultraturrax at 13,500 rpm for 3×5 seconds and alicuoted in 0.9 ml volumes in Eppendorf tubes. Alicuotes were centrifuged at 20,800×g for 5 minutes, supernatants discarded and pellets were frozen at −80° C. until use. Total protein concentration was determined using the Bio-Rad Lowry method based kit. Competitive binding experiments were performed in presence of 1 nM [^3H]-CP 55,940 in siliconized glass tubes containing 100 μg protein/tube resuspended in 1 ml final volume of 50 mM Tris-HCl, 5 mM MgCl2, 1 mM EDTA, 0.5% (w/v) bovine serum albumin, pH 7.4. Compounds were present at various concentrations and the non specific binding was determined in the presence of 10 μM HU-210. After 1 hour incubation at 30° C., the suspension was rapidly filtered through 0.5% PEI pre-treated GF/B fiber filters on a 96-well harvester and washed 3 times with 3 ml ice-cold binding buffer without bovine serum albumin. Radioactivity on filters was measured with Wallac Winspectral 1414 counter by liquid scintillation in 6 ml Ecoscint H (National Diagnostics, U.K.). Assays were made in triplicates.
(§4) Binding data were analyzed by non-linear regression with the software GraphPad Prism Version 3.03.

CB1 receptor [2] = biological target: T2, CB1 receptor; test: as above; details: binding data per pharmacological methods part I, table does not say whether human transfected receptor or rat cerebellum
T2 construct: IC50 [nM]; radioligand [3H]-CP55940
Method: as §1, §2, §3, §4

| SMILES | Inhibition [%], 10^−7 M (CB1 receptor [1]) | Inhibition [%], 10^−8 M (CB1 receptor [1]) | IC50 (CB1 receptor [2]) | IC50 (CB1 receptor [2]; hydrochloride) | Inhibition [%], 10^−7 M (CB1 receptor [1]; hydrochloride) | Inhibition [%], 10^−8 M (CB1 receptor [1]; hydrochloride) |
| --- | --- | --- | --- | --- | --- | --- |
| O=C(C1=NN(c2ccc(Cl)cc2Cl)C(c2ccc(Cl)cc2)C1)N1CCN(Cc2ccccc2)CC1 (stereo not drawn) [Example 52, (4-Benzyl-piperazin-1-yl)-[5-(4-chloro-phenyl)-1-(2,4-dichloro-phenyl)-4,5-dihydro-1H-pyrazol-3-yl]-methanone] | – | – | 251 nM | – | – | – |
| O=C(NN1CCCCC1)C1=NN(c2ccc(Cl)cc2Cl)C(c2ccc(Br)cc2)C1 (stereo not drawn) [Example 60, 5-(4-Bromo-phenyl)-1-(2,4-dichloro-phenyl)-4,5-dihydro-1H-pyrazole-3-carboxylic acid piperidin-1-ylamide hydrochloride] | – | – | – | 27 nM | – | – |
| Cl.O=C(NN1CC2CCCC2C1)C1=NN(c2ccc(Cl)cc2Cl)C(c2ccc(F)cc2)C1 (stereo not drawn) [Example 91, 1-(2,4-Dichloro-phenyl)-5-(4-fluoro-phenyl)-4,5-dihydro-1H-pyrazole-3-carboxylic acid (hexahydro-cyclopenta[c]pyrrol-2-yl)-amide hydrochloride] | – | – | – | 47 nM | 79.1% | 43% |
| Cl.O=C(NN1CC2CCCC2C1)C1=NN(c2ccc(Cl)cc2Cl)C(c2ccc(F)cc2)C1 (stereo not drawn) [Example 91A, 1-(2,4-Dichloro-phenyl)-5-(4-fluoro-phenyl)-4,5-dihydro-1H-pyrazole-3-carboxylic acid (hexahydro-cyclopenta[c]pyrrol-2-yl)-amide] | 75.3% | 34.9% | 84 nM | – | – | – |
| O=C(NN1CCCCCC1)C1=NN(c2ccc(Cl)cc2Cl)C(c2ccc(F)cc2)C1 (stereo not drawn) [Example 96, 1-(2,4-Dichloro-phenyl)-5-(4-fluoro-phenyl)-4,5-dihydro-1H-pyrazole-3-carboxylic acid azepan-1-ylamide] | 74.8% | 43.3% | 56 nM | – | – | – |
| COc1ccc(C2CC(C(=O)NN3CCCCC3)=NN2c2ccc(Cl)cc2Cl)cc1.Cl (stereo not drawn) [Example 106, 1-(2,4-Dichloro-phenyl)-5-(4-methoxy-phenyl)-4,5-dihydro-1H-pyrazole-3-carboxylic acid piperidin-1-ylamide hydrochloride] | 76.1% | 23.4% | – | 32 nM | – | – |
| COc1ccc(C2CC(C(=O)NN3CC4CCCC4C3)=NN2c2ccc(Cl)cc2Cl)cc1.Cl (stereo not drawn) [Example 109, 1-(2,4-Dichloro-phenyl)-5-(4-methoxy-phenyl)-4,5-dihydro-1H-pyrazole-3-carboxylic acid (hexahydro-cyclopenta[c]pyrrol-2-yl)-amide hydrochloride] | – | – | – | 16 nM | 80.6% | 44% |
| COc1ccc(C2CC(C(=O)NN3CC4CCCC4C3)=NN2c2ccc(Cl)cc2Cl)cc1.Cl (stereo not drawn) [Example 109A, 1-(2,4-Dichloro-phenyl)-5-(4-methoxy-phenyl)-4,5-dihydro-1H-pyrazole-3-carboxylic acid (hexahydro-cyclopenta[c]pyrrol-2-yl)-amide] | 74.2% | 33.5% | 15 nM | – | – | – |
| COc1ccc(C2CC(C(=O)NN3CCc4ccccc43)=NN2c2ccc(Cl)cc2Cl)cc1.Cl (stereo not drawn) [Example 112, 1-(2,4-Dichloro-phenyl)-5-(4-methoxy-phenyl)-4,5-dihydro-1H-pyrazole-3-carboxylic acid (2,3-dihydro-indol-1-yl)-amide hydrochloride] | 61.8% | 46.3% | 106 nM | – | – | – |
| COc1ccc(C2CC(C(=O)NN3CCCCCC3)=NN2c2ccc(Cl)cc2Cl)cc1.Cl (stereo not drawn) [Example 114, 1-(2,4-Dichloro-phenyl)-5-(4-methoxy-phenyl)-4,5-dihydro-1H-pyrazole-3-carboxylic acid azepan-1-ylamide hydrochloride] | 68.7% | 47.6% | – | 24 nM | – | – |
| COc1ccc(C2CC(C(=O)NN3CCCCCC3)=NN2c2ccc(Cl)cc2Cl)cc1 (stereo not drawn) [Example 114A, 1-(2,4-Dichloro-phenyl)-5-(4-methoxy-phenyl)-4,5-dihydro-1H-pyrazole-3-carboxylic acid azepan-1-ylamide] | 79.3% | 41.4% | 18 nM | – | – | – |
| Cl.O=C(NN1CCCCC1)C1=NN(c2ccc(Cl)cc2Cl)C(c2ccc(F)cc2)C1 (stereo not drawn) [Example 135, 1-(2,4-Dichloro-phenyl)-5-(4-fluoro-phenyl)-4,5-dihydro-1H-pyrazole-3-carboxylic acid piperidin-1-ylamide hydrochloride] | 78.5% | 40.2% | – | 83 nM | – | – |
| O=C(NN1CCCCCCC1)C1=NN(c2ccc(Cl)cc2Cl)C(c2ccc(Br)cc2)C1 (stereo not drawn) [Example 146, 5-(4-bromo-phenyl)-1-(2,4-dichloro-phenyl)-4,5-dihydro-1H-pyrazole-3-carboxylic acid azocan-1-ylamide] | 71.8% | 35.2% | 12 nM | – | – | – |
| O=C(NN1CCCCCCC1)C1=NN(c2ccc(Cl)cc2Cl)C(c2ccc(F)cc2)C1 (stereo not drawn) [Example 147, 5-(4-fluoro-phenyl)-1-(2,4-dichloro-phenyl)-4,5-dihydro-1H-pyrazole-3-carboxylic acid azocan-1-ylamide] | 63.4% | 24.0% | 54 nM | – | – | – |

Now from value to molecule, other results behind:

| Inhibition [%], 10^−7 M (CB1 receptor [1]) | Inhibition [%], 10^−8 M (CB1 receptor [1]) | IC50 (CB1 receptor [2]) | IC50 (CB1 receptor [2]; hydrochloride) | SMILES | Inhibition [%], 10^−7 M (CB1 receptor [1]; hydrochloride) | Inhibition [%], 10^−8 M (CB1 receptor [1]; hydrochloride) |
| --- | --- | --- | --- | --- | --- | --- |
| 71.2% | −12.8% | 146 nM | – | O=C(N[N+]1([O-])CCCCC1)C1=NN(c2ccc(Cl)cc2Cl)C(c2ccc(Cl)cc2)C1 (stereo not drawn) [Example 7, N-oxide of 5-(4-Chloro-phenyl)-1-(2,4-dichloro-phenyl)-4,5-dihydro-1H-pyrazole-3-carboxylic acid piperidin-1-ylamide] | – | – |
| 52.7% | 12% | 84 nM | – | O=C(NCC1CCCCC1)C1=NN(c2ccc(Cl)cc2Cl)C(c2ccc(Cl)cc2)C1 (stereo not drawn) [Example 32, 5-(4-Chloro-phenyl)-1-(2,4-dichloro-phenyl)-4,5-dihydro-1H-pyrazole-3-carboxylic acid cyclohexylmethyl-amide] | – | – |
| 65.8% | 33.3% | 44 nM | – | O=C(NN1CCCCC1)C1=NN(c2ccc(Cl)cc2Cl)C(c2ccc(Br)cc2)C1 (stereo not drawn) [Example 60A, 5-(4-Bromo-phenyl)-1-(2,4-dichloro-phenyl)-4,5-dihydro-1H-pyrazole-3-carboxylic acid piperidin-1-ylamide] | – | – |
| – | – | 355 nM | – | CCCNC(=O)C1=NN(c2ccc(Cl)cc2Cl)C(c2ccc(Cl)cc2)C1 (stereo not drawn) [Example 69, 5-(4-Chloro-phenyl)-1-(2,4-dichloro-phenyl)-4,5-dihydro-1H-pyrazole-3-carboxylic acid propylamide] | – | – |
| 67.7% | 33.1% | 52 nM | – | O=C(NC1CCCCCC1)C1=NN(c2ccc(Cl)cc2Cl)C(c2ccc(Br)cc2)C1 (stereo not drawn) [Example 130, 5-(4-Bromo-phenyl)-1-(2,4-dichloro-phenyl)-4,5-dihydro-1H-pyrazole-3-carboxylic acid cycloheptylamide] | – | – |
| 70.2% | 42.9% | 115 nM | – | O=C(NC1CCCCCC1)C1=NN(c2ccc(Cl)cc2Cl)C(c2ccc(F)cc2)C1 (stereo not drawn) [Example 131, 5-(4-Fluorophenyl)-1-(2,4-dichloro-phenyl)-4,5-dihydro-1H-pyrazole-3-carboxylic acid cycloheptylamide] | – | – |
| 82.3% | 67.5% | 32 nM | – | O=C(N[C@H]1CCCC[C@@H]1OCc1ccccc1)C1=NN(c2ccc(Cl)cc2Cl)C(c2ccc(Cl)cc2)C1 (stereo partly drawn) [Example 151, N-((1S,2S)-2-(benzyloxy)cyclohexyl)-5-(4-chlorophenyl)-1-(2,4-dichlorophenyl)-4,5-dihydro-1H-pyrazole-3-carboxamide] | – | – |
| 58% | 41.2% | 119 nM | – | O=C(N[C@@H]1CCCC[C@H]1OCc1ccccc1)C1=NN(c2ccc(Cl)cc2Cl)C(c2ccc(Cl)cc2)C1 (stereo partly drawn) [Example 178, N-((1R,2R)-2-(benzyloxy)cyclohexyl)-5-(4-chlorophenyl)-1-(2,4-dichlorophenyl)-4,5-dihydro-1H-pyrazole-3-carboxamide] | – | – |
